According to article PMC2920549, “Bromopyrrole Alkaloids as Lead Compounds against Protozoan Parasites” (Marine Drugs, 2010):
In brackets after ≈: the same amount, converted by molar mass. Several values for one entry are separate records, joined by “and”; a condition that tells them apart may be missing. Equal entries are not always repeated. Where two headings read alike, the source gives them in different places. Marks after values point to notes of the source that are not given here.

Experiments:
[1] = target: T1, PfFabZ (β-hydroxyacyl-ACP dehydratase) (Plasmodium falciparum, UniProt Q965D7); assay: biochemical
T1 construct: made in house
T1 sequence (Q965D7 19-230): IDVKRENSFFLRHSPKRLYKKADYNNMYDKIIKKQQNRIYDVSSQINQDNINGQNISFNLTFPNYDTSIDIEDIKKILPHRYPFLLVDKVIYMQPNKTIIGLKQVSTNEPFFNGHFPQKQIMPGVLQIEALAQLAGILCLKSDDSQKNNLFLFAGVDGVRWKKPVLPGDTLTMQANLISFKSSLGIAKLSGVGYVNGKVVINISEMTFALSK
Protocol: Expression and purification of the PfFab enzymes as well as the assays were performed as described [29]. […] Measurements were carried out in Nundron Surface sterile 96-well plates, using 20 mM Hepes and 150 mM NaCl at pH 7.4. Compounds were dissolved in DMSO (maximum final concentration 1%). A dilution series of 50 μg/mL to 0.0005 μg/mL of dissolved compounds was measured. For PfFabI, 400 μM NADH (cofactor, Sigma) was added to 2 μg enzyme and reaction started by addition of 300 μM crotonyl-CoA (substrate, Sigma). The change of absorbance of the mixture was recorded spectrophotometrically at 340 nm for 40 minutes. Triclosan was used as a positive control and was analyzed the same way. For PfFabG 400 μM NADPH (cofactor, Fluka) was added to 0.5 μg enzyme and reaction started by addition of 300 μM acetoacetyl-CoA (substrate, Sigma). The change of absorbance of the mixture was recorded spectrophotometrically at 340 nm for 20 minutes. (-)-Epigallocatechin gallate (Sigma) was used as a positive control and was analyzed the same way. For PfFabZ, 600 μM crotonoyl-CoA (substrate, Sigma) was added to 0.5 μg enzyme. The change of absorbance of the mixture was recorded spectrophotometrically at 260 nm for 20 minutes. (−)-Epigallocatechin gallate was used as a positive control. IC50 values were estimated from graphically plotted dose-response curves. […]

[2] = system: T. cruzi Tulahuen strain C2C4 intracellular amastigotes in L6 rat skeletal myoblasts; assay: Activity against Trypanosoma cruzi (beta-galactosidase/CPRG assay in L6 cells); format: cell-based; conditions: for IC50: Trypanosoma cruzi, TULAHUEN, L6, 96 h; for IC50 T. cruzi: 96 h
Protocol: Then the substrate CPRG/Nonidet (50 μl) was added to all wells. A color reaction developed within 2–6 h and could be read photometrically at 540 nm. Data were transferred into the graphic programme Softmax Pro (Molecular Devices), which calculated IC50 values. […] Benznidazole was the standard drug used.

[3] = system: P. falciparum K1 strain erythrocytic stages; assay: Activity against Plasmodium falciparum ([3H]-hypoxanthine incorporation); format: cell-based; conditions: for IC50: Plasmodium falciparum; for Selectivity index (CC50 L6 / IC50 parasite) for P. falciparum: CC50 L6 cells divided by IC50 P. falciparum; for IC50 P. falciparum: K1 strain
Protocol: (§1) The toxicity on mammalian cells was assessed against L6 cells, a primary cell line derived from rat skeletal myoblasts.
The radioactivity was counted using a Betaplate^TM liquid scintillation counter (Wallac, Zurich, Switzerland). […] IC50 values were calculated from graphically plotted dose-response curves.

[4] = system: PfFabI (enoyl-ACP reductase); design: method as in PMID 17765547; conditions: previous project; cited from earlier work
[5] = system: T. cruzi Tulahuen strain C2C4 intracellular amastigotes in L6 rat skeletal myoblasts; design: method as in PMID 17765547; conditions: earlier study; cited from earlier work
[6] = system: T. b. rhodesiense STIB 900 bloodstream forms; design: method as in PMID 17765547; conditions: earlier study; cited from earlier work
L6 cells [7] = system: L6 cells; design: method as in PMID 17765547; conditions: earlier study; cited from earlier work
[8] = system: P. falciparum K1 strain erythrocytic stages; design: method as in PMID 17765547; conditions: earlier study; cited from earlier work
[9] = system: L. donovani strain MHOM/ET/67/L82 axenic amastigotes; design: method as in PMID 17765547; conditions: earlier study; cited from earlier work
[10] = Cytotoxicity against L6-cells (resazurin); format: cell-based, rat; conditions: rat
Protocol: as §1
(§2) Assays were performed in 96-well microtiter plates, each well containing 100 μL of RPMI 1640 medium supplemented with 1% L-glutamine (200 mM) and 10% fetal bovine serum, and 4 × 10^4 L-6 cells (a primary cell line derived from rat skeletal myoblasts). Serial drug dilutions of seven 3-fold dilution steps covering a range from 90 to 0.123 μg/mL were prepared. After 72 h of incubation the plates were inspected under an inverted microscope to assure growth of the controls and sterile conditions. 10 μl of a resazurin solution (12.5 mg resazurin dissolved in 100 mL distilled water) was then added to each well and the plates incubated for another 2 h. Then the plates were read with a Spectramax Gemini XS microplate fluorometer using an excitation wavelength of 536 nm and an emission wavelength of 588 nm. Data were analyzed using the microplate reader software Softmax Pro. Each CC50 value obtained is the mean of at least two separate experiments performed in duplicate. Podophyllotoxin was the standard drug used.

[11] = system: L. donovani strain MHOM/ET/67/L82 axenic amastigotes; assay: Activity against Leishmania donovani (axenic amastigotes, resazurin); format: cell-based; conditions: for IC50: Leishmania donovani, read-out: IC50 L. donovani; for IC50 / IC50 L. donovani: 72 h; for Selectivity index (CC50 L6 / IC50 parasite) for L. donovani: CC50 L6 cells divided by IC50 L. donovani
Protocol: as §1
Amastigotes of L. donovani strain MHOM/ET/67/L82 were grown in axenic culture at 37 °C in SM medium at pH 5.4 supplemented with 10% heat-inactivated fetal bovine serum under an atmosphere of 5% CO2 in air. One hundred μL of culture medium with 10^5 amastigotes from axenic culture with or without a serial drug dilution were seeded in 96-well microtiter plates. […] Data were analyzed using the software Softmax Pro. Decrease of fluorescence (=inhibition) was expressed as percentage of the fluorescence of control cultures and plotted against the drug concentrations. From the sigmoidal inhibition curves the IC50 values were calculated. […] Miltefosine was used as a reference drug.

[12] = system: T. b. rhodesiense STIB 900 bloodstream forms; assay: Activity against Trypanosoma brucei rhodesiense (resazurin assay); format: cell-based; conditions: for IC50: Trypanosoma brucei, read-out: IC50 T. b. rhodesiense; for IC50 / IC50 T. b. rhodesiense: 72 h; for Selectivity index (CC50 L6 / IC50 parasite) for T. brucei rhodesiense: CC50 L6 cells divided by IC50 T. b. rhodesiense
Protocol: as §1
STIB 900 strain of T. b. rhodesiense and the standard drug melarsoprol were used for the assay. […] Data were analyzed using the microplate reader software Softmax Pro (Molecular Devices Cooperation, Sunnyvale, CA, USA).

L6 cells [13] = assay: Cytotoxicity against L6-cells (resazurin); format: cell-based, rat; conditions: 72 h
Protocol: as §1, §2

[14] = K1, read-out: IC50 P. falciparum
[15] = K1, K1 strain, erythrocytic stage, read-out: IC50 P. falciparum
[16] = 72 h, read-out: CC50 Cytotoxicity L6 cells

| Molecule | IC50 [2] [µg/mL] | CC50 at 72 h [10] [µg/mL] | IC50 ([11]; axenic amastigotes) [µg/mL] | IC50 [3, 15] [µg/mL] | IC50 ([12]; STIB 900 bloodstream forms) [µg/mL] | also measured |
| --- | --- | --- | --- | --- | --- | --- |
| O=C(O[C@@H]1Cc2c(O)cc(O)cc2O[C@@H]1c1cc(O)c(O)c(O)c1)c1cc(O)c(O)c(O)c1 [(−)-epigallocatechin gallate, reference compound] |  |  |  |  |  | IC50 [1]: 698 nM |
| O=C(Cn1ccnc1[N+](=O)[O-])NCc1ccccc1 [Benznidazole, reference compound] | 0.312 (≈ 1.2 µM) |  |  |  |  |  |
| CCN(CC)CCCC(C)Nc1ccnc2cc(Cl)ccc12 (stereo not drawn) [Chloroquine, reference compound] |  |  |  |  |  | IC50 [3, 14]: 0.065 µg/mL (≈ 0.203 µM) |
| Nc1ncc(/C=C/CNC(=O)c2cc(Br)c(Br)[nH]2)[nH]1 [Compound 1a, oroidin] |  |  |  |  |  | PfFabI inhibition (in words) [4]: potent PfFAbI inhibitors; IC50 T. cruzi [5]: >30 ^1 μg/mL; IC50 T. b. rhodesiense [6]: 17.30 ^1 μg/mL; CC50 Cytotoxicity L6 cells (L6 cells [7]): 88.60 ^1 μg/mL; IC50 P. falciparum [8]: 3.90 ^1 μg/mL; IC50 L. donovani [9]: >30 ^1 μg/mL |
| Nc1ncc(/C=C/CNC(=O)c2cc(Br)c(Br)[nH]2)[nH]1 [Compound 1b, oroidin] |  |  |  |  |  | PfFabI inhibition (in words) [4]: potent PfFAbI inhibitors; IC50 T. cruzi [5]: >30 ^1 μg/mL; IC50 T. b. rhodesiense [6]: 12.20 ^1 μg/mL; CC50 Cytotoxicity L6 cells (L6 cells [7]): 76.40 ^1 μg/mL; IC50 P. falciparum [8]: 7.90 ^1 μg/mL; IC50 L. donovani [9]: 15.40 ^1 μg/mL |
| Nc1ncc(/C=C/CNC(=O)c2cc(Br)c[nH]2)[nH]1 [Compound 2, hymenidin] |  | 75.7 (≈ 244 µM) | 29.9 (≈ 96.3 µM) | 12.5 (≈ 40.4 µM) | 77.6 (≈ 250 µM) |  |
| NC1=NC(=O)/C(=C/CCNC(=O)c2cc(Br)c[nH]2)N1 [Compound 3, dispacamide B] | > 90 | > 90 | > 90 | 1.09 (≈ 3.34 µM) | 40.1 (≈ 123 µM) | CC50 Cytotoxicity L6 cells (L6 cells [13]): devoid of any cytotoxicity; IC50 L. donovani ([11]; axenic amastigotes): completely inactive; Selectivity index (CC50 L6 / IC50 parasite) for P. falciparum [3]: > 67.2; IC50 P. falciparum ([3]; erythrocytic stage): 1.34 µg/mL (≈ 4.11 µM) |
| NC1=NC(=O)/C(=C/C(O)CNC(=O)c2cc(Br)c[nH]2)N1 (stereo not drawn) [Compound 4, dispacamide D] | > 90 | > 90 | 53.8 (≈ 157 µM) | > 20 | 68.2 (≈ 199 µM) |  |
| Nc1ncc(C2=CCNC(=O)c3[nH]c(Br)c(Br)c32)[nH]1 [Compound 5, stevensine] | > 90 | > 90 | 75.9 (≈ 196 µM) | 4.88 (≈ 12.6 µM) | 25.3 (≈ 65.5 µM) |  |
| O=C1CCNC(=O)c2[nH]c(Br)cc21 [Compound 7, bromoaldisin] | > 90 | > 90 | > 90 | > 20 | 61.5 (≈ 253 µM) |  |
| O=C(O)CC1CNC(=O)c2cc(Br)c(Br)n21 (stereo not drawn) [Compound 8, longamide B] | > 33 | 9.94 (≈ 28.2 µM) | 3.85 (≈ 10.9 µM) | 7.46 (≈ 21.2 µM) | 1.53 (≈ 4.35 µM) | IC50 T. cruzi [2]: 33.03 µg/mL (≈ 93.8 µM); Selectivity index (CC50 L6 / IC50 parasite) for L. donovani [11]: 2.6; Selectivity index (CC50 L6 / IC50 parasite) for T. brucei rhodesiense [12]: 6.5 |
| O=C1NC[C@@H](O)n2c1cc(Br)c2Br [Compound 9, longamide A] | > 90 | > 90 | > 90 | > 20 | > 90 |  |
| Nc1nc([C@H]2[C@H](CNC(=O)c3cc(Br)c[nH]3)[C@@H](CNC(=O)c3cc(Br)c[nH]3)[C@@H]2c2c[nH]c(N)n2)c[nH]1 [Compound 10, sceptrin] | > 33 | > 90 | 51.6 (≈ 83.2 µM) | 11.1 (≈ 17.9 µM) | 9.71 (≈ 15.7 µM) | IC50 T. cruzi [2]: 60.08 µg/mL (≈ 96.9 µM) |
| NCC1C2CN3C(=O)c4cc(Br)c(Br)n4C4N=C(N)NC43C2C2(N=C(N)NC2O)C1Cl (stereo not drawn) [Compound 11, dibromopalau’amine] |  |  |  |  | 0.46 (≈ 0.796 µM) | CC50 at 72 h [10, 16]: 4.46 µg/mL (≈ 7.72 µM); Selectivity index (CC50 L6 / IC50 parasite) for L. donovani [11]: 3–4; IC50 [11]: 1.09 µg/mL (≈ 1.89 µM); Selectivity index (CC50 L6 / IC50 parasite) for P. falciparum [3]: 3–4; IC50 [3, 14]: 1.48 µg/mL (≈ 2.56 µM); Selectivity index (CC50 L6 / IC50 parasite) for T. brucei rhodesiense [12]: about 10 |
| N=C(N)NCCCC[C@H](NC(=O)c1cc(Br)c[nH]1)C(=O)O [Compound 12, bromopyrrolohomoarginin] | > 90 | 62.3 (≈ 173 µM) | 34.5 (≈ 95.7 µM) | > 20 | 67.1 (≈ 186 µM) | IC50 ([1]; read-out: IC50 PfFabZ (converted)): 777 nM |
| C[C@]1(COC(=O)c2cc(Br)c[nH]2)C[C@@H](C(=O)O)N=CN1 [Compound 13, manzacidin A] | > 90 | > 90 | 75.8 (≈ 220 µM) | > 20 | 73.8 (≈ 214 µM) |  |
| Nc1nc(N)nc(Nc2ccc([As]3SCC(CO)S3)cc2)n1 (stereo not drawn) [Melarsoprol, reference compound] |  |  |  |  |  | IC50 [12]: 0.004 µg/mL |
| CCCCCCCCCCCCCCCCOP(=O)([O-])OCC[N+](C)(C)C [Miltefosine, reference compound] |  |  | 0.21 (≈ 0.515 µM) |  |  | IC50 L. donovani ([11]; axenic amastigotes): 0.206 ^c μg/mL |
| COc1cc([C@@H]2c3cc4c(cc3[C@H](O)[C@H]3COC(=O)[C@H]23)OCO4)cc(OC)c1OC [Podophyllotoxin, reference compound] |  |  |  |  |  | CC50 at 72 h [10, 16]: 0.005 µg/mL (≈ 0.0121 µM) |
| agelongine [Compound 14] |  |  |  |  |  | CC50 Cytotoxicity L6 cells (L6 cells [13]): >90 µg/mL; IC50 T. cruzi [2]: >90 µg/mL; IC50 L. donovani ([11]; axenic amastigotes): 43.22 µg/mL; IC50 P. falciparum ([3]; erythrocytic stage): 11.18 µg/mL; IC50 T. b. rhodesiense ([12]; STIB 900 bloodstream forms): 49.96 µg/mL |
| spongiacidin B [Compound 6] |  |  |  |  |  | CC50 Cytotoxicity L6 cells (L6 cells [13]): 35.6 µg/mL and 35.61 µg/mL; IC50 L. donovani ([11]; axenic amastigotes): 41.59 µg/mL; IC50 P. falciparum ([3]; erythrocytic stage): 1.34 µg/mL and 1.09 µg/mL; IC50 T. b. rhodesiense ([12]; STIB 900 bloodstream forms): 13.58 µg/mL and 13.48 µg/mL |
